Patent publication US20130131161A1, “METHODS AND COMPOSITIONS FOR CARDIOVASCULAR DISEASES AND CONDITIONS” (priority 2009, published 2013)

System: Human umbilical vein endothelial cells (HUVECs)
Test: eNOS activity analysis: NO, ONOO− and NO/ONOO− release from HUVECs of 50 genotyped donors in response to LA-419 (Example 2)
Assay type: cell-based
Settings: for Net increase over control ONOO− (mean ± sd) / Peak release NO (mean ± sd) / Peak release NO/ONOO− (mean ± sd) / Peak release ONOO− (mean ± sd) / Net increase over control NO (mean ± sd) / Net increase over control NO/ONOO− (mean ± sd) / % Change Ratio, % Change NO/% Change ONOO− (mean ± sd): LA-419 1 μM; for % Change NO (mean ± sd) / % Change NO/ONOO− (mean ± sd) / % Change ONOO− (mean ± sd): LA-419 5 μM vs control
Method: Concurrent measurements of NO and ONOO^− were carried out with tandem electrochemical nanosensors combined into one working unit with a total diameter of 200-500 nm (FIG. 1). Their design was based on previously developed and well-characterized chemically modified carbon-fiber technology (Malinski and Taha, 1992; Lvovich and Scheeline, 1997). Each of the nanosensors was made by depositing a sensing material on the tip of a carbon fiber (length 4-5 μm, diameter 0.2-0.5 μm). The fibers were sealed with nonconductive epoxy and electrically connected to copper wires with conductive silver epoxy. A conductive film of polymeric nickel (II) tetrakis(3-methoxy-4-hydroxyphenyl)porphyrin for the NO-sensor and polymeric film of Mn (III) [2.2]paracyclophanylporphyrin was used for the ONOO^−-sensor.
A module of NO/ONOO^− nanosensors (diameter 1-2 μm) with a platinum wire (0.1 mm) counter electrode and saturated calomel reference electrode (SCE) were applied. Differential pulse voltammetry (DPV) and amperometry were performed with a computer-based Gamry VFP600 multichannel potentiostat. DPV was used to measure the basal NO and ONOO^− concentrations, and amperometry was used to measure changes in NO and ONOO^− concentrations from its basal level with time. The DPV current at the peak potential characteristic for NO oxidation (0.65 V) and ONOO^− reduction (−0.45 V) was directly proportional to the local concentrations of these compounds in the immediate vicinity of the sensor. Linear calibration curves (current vs. concentration) were constructed for each sensor from 10 nM to 3 μM before and after measurements with aliquots of NO and ONOO^− standard solutions, respectively. The detection limit of the sensors was 1.0 nM.
The quantification of each analyte (concentration in nM) was performed using a maximum current from amperograms and standard calibration curves. A reproducibility of measurements with nanosensors is relatively high (between 5-12%). […] The sensors were slowly raised 5±2 μm from the surface of a single endothelial cell. The eNOS agonist, calcium ionophore A23187 (CaI) as well as the different drugs were then added to the surrounding media at the cell surface with a nanoinjector that was also positioned by a computer controlled-micromanipulator.
This example describes the genotype-specific response of the three major eNOS variants to 1 μM and 5 μM concentrations of LA-419. The three major genetic polymorphisms studied were the Glu298Asp variant (E298D or 894G→T) in exon 7 of […], the −786T→C variant in the promoter region, and the intron 4 polymorphism (VNTR). All of these variants have possible effects on the cardiovascular system and endothelial dysfunction. For this study, human umbilical vein endothelial cells (HUVECs) from 50 donors between 18 and 32 years of age were used.
For the analysis several analysis techniques were employed. First, the effect of genotype on NO and ONOO^− release was explored within the different concentrations of LA-419 (control, 1 μM, 5 μM), calculated as the average peak release (nmols/L) of NO, ONOO^−, and NO/ONOO^−. The effect of genotype on the net increase in NO, ONOO^−, and NO/ONOO^− for LA-419 (1 μM and 5 μM) as compared to control was also measured. In addition, an analysis was done on the effect of genotype on the % change in NO, ONOO^−, and NO/ONOO^− production for LA-419 (1 μM and 5 μM), calculated as:
% Change=[(avg. LA-419−avg. control)/(avg. control)]*100
Finally, an evaluation was undertaken concerning the effect of genotype on the production of NO, ONOO^−, and NO/ONOO^− as the fold difference of control for LA-419 (1 μM and 5 μM), calculated as:
Fold Difference=(avg. LA-419)/(avg. control)
Within each calculation technique the results were compared for statistical significance using a non-parametric ANOVA Kruskal-Wallace test or a non-parametric Mann-Whitney U test. Statistical significance was set at a p-value <0.05 in a two-tailed distribution. […]

[1] = HUVECs Intron 4 variant b/a, a/a, c/c
[2] = HUVECs T-786C variant T/C & C/C
[3] = HUVEC donor Race Caucasian/Black

CC(=O)SC1COC2C(O[N+](=O)[O-])COC12 (stereo not drawn) [LA-419, S-(6-Nitro-oxi-hexahydro-furo[3,2-b]furan-3-1-il)thioacetate]
Net increase over control ONOO− (mean ± sd) (HUVECs Intron 4 variant b/a): −37.57 (99.15) nmols/L
Peak release NO (mean ± sd) (HUVECs Intron 4 variant b/a): 377.23 (69.05) nmols/L
Peak release NO/ONOO− (mean ± sd) (HUVECs Intron 4 variant b/a): 1.25 (0.46)
Peak release ONOO− (mean ± sd) (HUVECs Intron 4 variant b/a): 330.47 (88.93) nmols/L
Net increase over control NO (mean ± sd) [1]: 27.83 (86.07) nmols/L
Net increase over control NO/ONOO− (mean ± sd) [1]: 0.16 (0.46)
Net increase over control ONOO− (mean ± sd) [1]: −21.43 (98.29) nmols/L
Peak release NO (mean ± sd) [1]: 366.00 (71.50) nmols/L
Peak release NO/ONOO− (mean ± sd) [1]: 1.15 (0.48)
Peak release ONOO− (mean ± sd) [1]: 356.55 (98.40) nmols/L
Net increase over control NO (mean ± sd) (HUVECs Intron 4 variant b/b): 39.66 (70.27) nmols/L
Net increase over control NO/ONOO− (mean ± sd) (HUVECs Intron 4 variant b/b): 0.29 (0.47)
Net increase over control ONOO− (mean ± sd) (HUVECs Intron 4 variant b/b): −51.71 (108.03) nmols/L
Peak release NO (mean ± sd) (HUVECs Intron 4 variant b/b): 393.18 (77.21) nmols/L
Peak release NO/ONOO− (mean ± sd) (HUVECs Intron 4 variant b/b): 1.33 (0.42)
Peak release ONOO− (mean ± sd) (HUVECs Intron 4 variant b/b): 317.60 (74.77) nmols/L
Net increase over control NO (mean ± sd) (HUVECs Intron 4 variant c/c): −98.67 (0) nmols/L
Net increase over control NO/ONOO− (mean ± sd) (HUVECs Intron 4 variant c/c): −0.23 (0)
Net increase over control ONOO− (mean ± sd) (HUVECs Intron 4 variant c/c): −2.67 (0) nmols/L
Peak release NO (mean ± sd) (HUVECs Intron 4 variant c/c): 270.00 (0) nmols/L
Peak release NO/ONOO− (mean ± sd) (HUVECs Intron 4 variant c/c): 0.64 (0)
Peak release ONOO− (mean ± sd) (HUVECs Intron 4 variant c/c): 423.67 (0) nmols/L
% Change Ratio, % Change NO/% Change ONOO− (mean ± sd) (HUVECs T-786C variant C/C): −0.80 (1.04)
Net increase over control NO (mean ± sd) (HUVECs T-786C variant C/C): 2.08 (39.61) nmols/L
Net increase over control NO/ONOO− (mean ± sd) (HUVECs T-786C variant C/C): −0.48 (0.48)
Net increase over control ONOO− (mean ± sd) (HUVECs T-786C variant C/C): 25.25 (135.63) nmols/L
Peak release NO (mean ± sd) (HUVECs T-786C variant C/C): 334.25 (68.06) nmols/L
Peak release NO/ONOO− (mean ± sd) (HUVECs T-786C variant C/C): 0.88 (0.50)
Peak release ONOO− (mean ± sd) (HUVECs T-786C variant C/C): 430.17 (124.82) nmols/L
% Change Ratio, % Change NO/% Change ONOO− (mean ± sd) (HUVECs T-786C variant T/C): −1.06 (0.82)
Net increase over control NO (mean ± sd) (HUVECs T-786C variant T/C): 46.77 (81.32) nmols/L
Net increase over control NO/ONOO− (mean ± sd) (HUVECs T-786C variant T/C): −0.99 (0.94)
Net increase over control ONOO− (mean ± sd) (HUVECs T-786C variant T/C): −61.09 (111.68) nmols/L
Peak release NO (mean ± sd) (HUVECs T-786C variant T/C): 396.32 (73.63) nmols/L
Peak release NO/ONOO− (mean ± sd) (HUVECs T-786C variant T/C): 1.35 (0.44)
Peak release ONOO− (mean ± sd) (HUVECs T-786C variant T/C): 315.74 (78.13) nmols/L
Net increase over control NO (mean ± sd) [2]: 40.15 (77.70) nmols/L
Net increase over control NO/ONOO− (mean ± sd) [2]: −0.91 (0.90)
Net increase over control ONOO− (mean ± sd) [2]: −48.30 (116.85) nmols/L
Peak release NO (mean ± sd) [2]: 387.12 (75.01) nmols/L
Peak release NO/ONOO− (mean ± sd) [2]: 1.28 (0.47)
Peak release ONOO− (mean ± sd) [2]: 332.69 (93.16) nmols/L
% Change Ratio, % Change NO/% Change ONOO− (mean ± sd) (HUVECs T-786C variant T/T): 1.06 (9.40)
Net increase over control NO (mean ± sd) (HUVECs T-786C variant T/T): 30.80 (64.85) nmols/L
Net increase over control NO/ONOO− (mean ± sd) (HUVECs T-786C variant T/T): 0.77 (8.26)
Net increase over control ONOO− (mean ± sd) (HUVECs T-786C variant T/T): −27.14 (82.12) nmols/L
Peak release NO (mean ± sd) (HUVECs T-786C variant T/T): 380.73 (75.61) nmols/L
Peak release NO/ONOO− (mean ± sd) (HUVECs T-786C variant T/T): 1.22 (0.43)
Peak release ONOO− (mean ± sd) (HUVECs T-786C variant T/T): 335.82 (80.98) nmols/L
ONOO− production versus control (LA-419 5 μM (Table b2)): decrease
% Change NO (mean ± sd) [3]: 16.93 (4.34) %
% Change NO/ONOO− (mean ± sd) [3]: 58.92 (16.01) %
% Change ONOO− (mean ± sd) [3]: −25.30 (9.90) %
% Change NO (mean ± sd) (HUVEC donor Race Not Reported): 18.69 (5.53) %
% Change NO/ONOO− (mean ± sd) (HUVEC donor Race Not Reported): 75.55 (20.43) %
% Change ONOO− (mean ± sd) (HUVEC donor Race Not Reported): −31.56 (5.34) %
% Change NO (mean ± sd) (HUVEC donor alpha): 12.82 (5.82) %
% Change NO/ONOO− (mean ± sd) (HUVEC donor alpha): 36.30 (14.59) %
% Change ONOO− (mean ± sd) (HUVEC donor alpha): −16.43 (6.22) %
% Change NO (mean ± sd) (HUVEC donor beta): 14.30 (6.78) %
% Change NO/ONOO− (mean ± sd) (HUVEC donor beta): 39.65 (12.24) %
% Change ONOO− (mean ± sd) (HUVEC donor beta): −17.84 (5.90) %
% Change NO (mean ± sd) (HUVEC donor delta): 13.97 (0) %
% Change NO/ONOO− (mean ± sd) (HUVEC donor delta): 57.83 (0) %
% Change ONOO− (mean ± sd) (HUVEC donor delta): −27.79 (0) %
% Change NO (mean ± sd) (HUVEC donor gamma): 17.23 (7.65) %
% Change NO/ONOO− (mean ± sd) (HUVEC donor gamma): 57.79 (12.24) %
% Change ONOO− (mean ± sd) (HUVEC donor gamma): −25.17 (5.79) %
% Change NO (mean ± sd) (HUVECs G894T variant G/G): 15.93 (6.37) %
% Change NO/ONOO− (mean ± sd) (HUVECs G894T variant G/G): 47.91 (17.67) %
% Change ONOO− (mean ± sd) (HUVECs G894T variant G/G): −20.65 (7.38) %
% Change NO (mean ± sd) (HUVECs G894T variant G/T): 13.43 (6.31) %
% Change NO/ONOO− (mean ± sd) (HUVECs G894T variant G/T): 38.86 (13.20) %
% Change ONOO− (mean ± sd) (HUVECs G894T variant G/T): −17.85 (6.26) %
% Change NO (mean ± sd) (HUVECs G894T variant T/T): 11.67 (6.86) %
% Change NO/ONOO− (mean ± sd) (HUVECs G894T variant T/T): 39.03 (13.43) %
% Change ONOO− (mean ± sd) (HUVECs G894T variant T/T): −19.03 (8.40) %
% Change NO (mean ± sd) (HUVECs Intron 4 variant a/a): 13.60 (3.88) %
% Change NO/ONOO− (mean ± sd) (HUVECs Intron 4 variant a/a): 36.75 (3.58) %
% Change ONOO− (mean ± sd) (HUVECs Intron 4 variant a/a): −16.60 (3.31) %
% Change NO (mean ± sd) (HUVECs Intron 4 variant b/a): 16.81 (6.88) %
% Change NO/ONOO− (mean ± sd) (HUVECs Intron 4 variant b/a): 45.81 (14.36) %
